Experimental data published in US7244837B2, “Insect monoamine transporter and methods of use thereof” (The University of Western Ontario, priority 1999, dated 2007).

Target: T1, OA/TAT (octopamine/tyramine transporter) (Trichoplusia ni, UniProt Q95VZ4, D309A/R312W)
T1 sequence (Q95VZ4 75-744 D309A/R312W): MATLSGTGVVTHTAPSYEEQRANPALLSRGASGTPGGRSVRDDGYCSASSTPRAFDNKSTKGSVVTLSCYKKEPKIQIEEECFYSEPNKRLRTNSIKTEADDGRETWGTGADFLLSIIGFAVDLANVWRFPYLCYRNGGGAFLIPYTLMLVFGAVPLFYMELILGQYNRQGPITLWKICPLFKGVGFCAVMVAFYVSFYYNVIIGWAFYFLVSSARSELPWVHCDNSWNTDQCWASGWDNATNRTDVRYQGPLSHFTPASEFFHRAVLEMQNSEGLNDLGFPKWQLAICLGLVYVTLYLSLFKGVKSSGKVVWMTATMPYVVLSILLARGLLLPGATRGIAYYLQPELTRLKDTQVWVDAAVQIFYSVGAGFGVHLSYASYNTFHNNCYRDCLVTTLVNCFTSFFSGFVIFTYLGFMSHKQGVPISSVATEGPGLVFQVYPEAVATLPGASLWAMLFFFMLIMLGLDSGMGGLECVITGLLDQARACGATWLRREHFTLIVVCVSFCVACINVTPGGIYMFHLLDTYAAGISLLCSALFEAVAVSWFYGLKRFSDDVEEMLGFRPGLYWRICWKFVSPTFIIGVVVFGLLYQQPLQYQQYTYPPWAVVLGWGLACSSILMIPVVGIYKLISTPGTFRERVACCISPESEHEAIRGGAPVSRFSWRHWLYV
Test: 3H-dopamine uptake by OA/TAT expressed in baculovirus-infected Sf21 insect cells (transport assay)
Type: cell-based
Settings: for inhibition at 10 µM: read-out: % Inhibition of 3H-Dopamine uptake by OA/TAT

Structure (SMILES) | IC50 [µM] | Ki [µM] | inhibition at 10 µM [%]
NCC(O)c1ccc(O)cc1 (racemic) [Octopamine, DL-Octopamine] | 1.92 ± 0.28 | 1.74 ± 0.25 | 80.9
CNCC(O)c1ccc(O)cc1 (racemic) [Synephrine, (±)-Synephrine] | – | – | 6.39
NCCc1ccc(O)c(O)c1 [Dopamine, 3-Hydroxytyramine] | 4.1 ± 1.02 | 3.72 ± 0.92 | 70.2
Fc1ccc(C(OCCN2CCN(CCCc3ccccc3)CC2)c2ccc(F)cc2)cc1 [GBR12909] | – | – | -10
NCCc1c[nH]cn1 [Histamine] | – | – | -1.81
NC[C@H](O)c1ccc(O)c(O)c1 [Norepinephrine, (−)-Arterenol] | 22 ± 2.94 | 20 ± 2.67 | 27.2
CN[C@@H](C)[C@@H](O)c1ccccc1 [Pseudoephedrine, (−)-ψ-Ephedrine] | – | – | 1.31
NCCc1c[nH]c2ccc(O)cc12 [Serotonin, 5-Hydroxytryptamine] | – | – | -3.6
NCCc1c[nH]c2ccccc12 [Tryptamine] | – | – | 9.57
NCCc1ccc(O)cc1 [Tyramine] | 0.39 ± 0.11 | 0.35 ± 0.1 | 96.5
